The values below come from patent publication US20150099774A1, “Pyrido [3,4-C] [1,9] phenanthroline and 11, 12 dihydropyrido [3,4-C] [1,9] phenanthroline derivatives and the use thereof, particularly for treating cancer” (CHRISTIAN-ALBRECHTS-UNIVERSITAET ZU KIEL, priority 2012, published 2015).

What all share (format): cell-based, human
One experiment relates to HL-60(TB). Nature of the experiment: NCI in vitro anti-tumor screening, 1 μM, SRB. The settings on record: c = 1 μM; HL-60(TB) (Leukemia); two days.
The next experiment deals with MOLT-4. Nature of the experiment: NCI in vitro anti-tumor screening, 1 μM, SRB. The settings on record: c = 1 μM; MOLT-4 (Leukemia); two days.
A further experiment deals with RPMI-8226. Nature of the experiment: NCI in vitro anti-tumor screening, 1 μM, SRB. The following applies: c = 1 μM; RPMI-8226 (Leukemia); two days.
The next experiment relates to K-562. In words: NCI in vitro anti-tumor screening, 1 μM, SRB. The settings on record: c = 1 μM; K-562 (Leukemia); two days.
In the next experiment the test system is LOX IMVI. In words: NCI in vitro anti-tumor screening, 1 μM, SRB. The settings on record: c = 1 μM; LOX IMVI (Melanoma); two days.
In a further experiment the test system is MALME-3M. In words: NCI in vitro anti-tumor screening, 1 μM, SRB. The settings on record: c = 1 μM; MALME-3M (Melanoma); two days.
In a further experiment the test system is M14. Nature of the experiment: NCI in vitro anti-tumor screening, 1 μM, SRB. The following applies: c = 1 μM; M14 (Melanoma); two days.
A further experiment has as its system MDA-MB-435. Nature of the experiment: NCI in vitro anti-tumor screening, 1 μM, SRB. The settings on record: c = 1 μM; MDA-MB-435 (Melanoma); two days.
Another experiment relates to SK-MEL-2. In words: NCI in vitro anti-tumor screening, 1 μM, SRB. The following applies: c = 1 μM; SK-MEL-2 (Melanoma); two days.
The next experiment deals with SK-MEL-28. In words: NCI in vitro anti-tumor screening, 1 μM, SRB. The following applies: c = 1 μM; SK-MEL-28 (Melanoma); two days.
The subject of another experiment is SK-MEL-5. Nature of the experiment: NCI in vitro anti-tumor screening, 1 μM, SRB. The following applies: c = 1 μM; SK-MEL-5 (Melanoma); two days.
In the next experiment the test system is UACC-257. Nature of the experiment: NCI in vitro anti-tumor screening, 1 μM, SRB. The following applies: c = 1 μM; UACC-257 (Melanoma); two days.
The subject of a further experiment is UACC-62. Nature of the experiment: NCI in vitro anti-tumor screening, 1 μM, SRB. The following applies: c = 1 μM; UACC-62 (Melanoma); two days.
A further experiment relates to MCF7. In words: NCI in vitro anti-tumor screening, 1 μM, SRB. The settings on record: c = 1 μM; MCF7 (Breast cancer); two days.
In another experiment the test system is MDA-MB-231/ATCC. Nature of the experiment: NCI in vitro anti-tumor screening, 1 μM, SRB. The settings on record: c = 1 μM; MDA-MB-231/ATCC (Breast cancer); two days.
In another experiment the test system is BT-549. In words: NCI in vitro anti-tumor screening, 1 μM, SRB. The settings on record: c = 1 μM; BT-549 (Breast cancer); two days.
A further experiment relates to T-47D. In words: NCI in vitro anti-tumor screening, 1 μM, SRB. The following applies: c = 1 μM; T-47D (Breast cancer); two days.
For a further experiment, the system named is MDA-MB-468. Nature of the experiment: NCI in vitro anti-tumor screening, 1 μM, SRB. The following applies: c = 1 μM; MDA-MB-468 (Breast cancer); two days.
Another experiment has as its system Leukemia cell lines. In words: NCI in vitro anti-tumor screening, 1 μM, mean of leukemia lines. The following applies: c = 1 μM.
For a further experiment, the system named is Melanoma cell lines. In words: NCI in vitro anti-tumor screening, 1 μM, mean of melanoma lines. The settings on record: c = 1 μM.
The subject of a further experiment is Breast cancer cell lines. In words: NCI in vitro anti-tumor screening, 1 μM, mean of breast cancer lines. The following applies: c = 1 μM.
Another experiment relates to 60 tumor cell lines. Nature of the experiment: NCI in vitro anti-tumor screening, 1 μM, all 60 cell lines. The following applies: c = 1 μM; all 60 cell lines.

For the molecule `Nc1nc2c(c3ccncc13)C(c1ccc(Br)cc1)Cc1ccncc1-2` (stereo not shown), the Percentage cell growth was 70.3% with HL-60(TB); 75.3% in the experiment with MOLT-4; 64.7% in the experiment on RPMI-8226; 84.9% in the experiment with K-562; 95.7% in the experiment with LOX IMVI; 98.2% with MALME-3M. Further, the Percentage cell growth in the experiment on M14 came to 93.4%; in the experiment on MDA-MB-435, 107%; in the experiment on SK-MEL-2, 94.1%; in the experiment on SK-MEL-28, 112.5%; in the experiment with SK-MEL-5 it was 86.2%; in the experiment with UACC-257 it was 107.8%. Further, the Percentage cell growth worked out at 81.7% with UACC-62; 83.4% in the experiment on MCF7; 80.6% in the experiment on MDA-MB-231/ATCC; 67.8% in the experiment with BT-549; 84.6% with T-47D; 87.6% with MDA-MB-468. In addition, the “Percentage cell growth, Arithmetic mean” value turned out to be 73.8% in the experiment with Leukemia cell lines, 97.4% in the experiment with Melanoma cell lines and 80.8% in the experiment on Breast cancer cell lines. The “Percentage cell growth, Arithmetic mean of all 60 cell lines” value with 60 tumor cell lines amounted to 90.5%.
